Reference: patent US11866430B2, “Naphthyridinone compounds useful as T cell activators” (priority 2018, dated 2024)
Where two headings read alike, the source gives them in different places.

Tests used:
human DGKα = human DGKα (Homo sapiens (Human), UniProt P23743); assay: biochemical; settings: detergent/lipid micelle substrate; read-out: DGKα IC50
Procedure: (§1) The DGKα and DGKζ reactions were performed using either extruded liposome (DGKα and DGKζ LIPGLO assays) or detergent/lipid micelle substrate (DGKα and DGKζ assays). The reactions were carried out in 50 mM MOPS pH 7.5, 100 mM NaCl, 10 mM MgCl2, 1 μM CaCl2, and 1 mM DTT (assay buffer). The reactions using a detergent/lipid micelle substrate also contained 50 mM octyl B-D-glucopyranoside. […] The lipid substrate concentrations were […], 0.25 mM DAG, and 2.75 mM PC for the extruded liposome reactions.
(§2) The compound inhibition studies were carried out as follows: 50 nL droplets of each test compound (top concentration 10 mM with 11 point, 3-fold dilution series for each compound) solubilized in DMSO were transferred to wells of a white 1536 well plate (Corning 3725). A 5 mL enzyme/substrate solution at 2× final reaction concentration was prepared by combining 2.5 mL 4× enzyme solution (20 nM DGKα or DGKζ (prepared as described below) in assay buffer) and 2.5 mL of either 4× liposome or 4× detergent/lipid micelle solution (compositions described below) and incubated at room temperature for 10 minutes. Next, 1 μL 2× enzyme/substrate solution was added to wells containing the test compound and reactions were initiated with the addition of 1 μL 300 uM ATP. The reactions were allowed to proceed for 1 hr, after which 2 μL Glo Reagent (Promega V9101) was added and incubated for 40 minutes. Next, 4 μL Kinase Detection Reagent was added and incubated for 30 minutes. Luminescence was recorded using an EnVision microplate reader. […] The compounds were evaluated at 11 concentrations to determine IC50.
(§3) The detergent/lipid micelle was prepared by combining 15 g phosphatidylserine (Avanti 840035P) and 1 g diacylglycerol (800811O) and dissolving into 150 mL chloroform in a 2 L round bottom flask. Chloroform was removed under high vacuum by rotary evaporation. The resulting colorless, tacky oil was resuspended in 400 mL 50 mM MOPS pH 7.5, 100 mM NaCl, 20 mM NaF, 10 mM MgCl2, 1 μM CaCl2), 1 mM DTT, and 200 mM octyl glucoside by vigorous mixing. The lipid/detergent solution was split into 5 mL aliquots and stored at −80° C.
(§4) Human DGK-alpha-TVMV-His-pFBgate and human DCK-zeta-transcript variant-2-TVMV-His-pFBgate baculovirus samples were generated using the Bac-to-Bac baculovirus expression system (Invitrogen) according to the manufacturer's protocol. The DNA used for expression of DGK-alpha and DGK-zeta have SEQ ID NOs: 1 and 3, respectively. Baculovirus amplification was achieved using infected Sf9 cells at 1:1500 virus/cell ratios, and grown for 65 hours at 27° C. post-transfection.
(§5) The expression scale up for each protein was carried out in the Cellbag 50 L WAVE-Bioreactor System 20/50 from GE Healthcare Bioscience. 12 L of 2×10^6 cells/mL Sf9 cells (Expression System, Davis, Calif.) grown in ESF921 insect medium (Expression System) were infected with virus stock at 1:200 virus/cell ratios, and grown for 66-68 hours at 27° C. post-infection. The infected cell culture was harvested by centrifugation at 2000 rpm for 20 min 4° C. in a SORVALL® RC12BP centrifuge. The cell pellets were stored at −70° C. until purification.
(§6) Full length human DGKα and DGKζ, each expressed containing a TVMV-cleavable C-terminal Hexa-His tag sequence (SEQ ID NOs: 2 and 4, respectively) and produced as described above, were purified from Sf) baculovirus-infected insect cell paste. The cells were lysed using nitrogen cavitation method with a nitrogen bomb (Parr Instruments), and the lysates were clarified by centrifugation. […] The three steps column chromatography included nickel affinity resin capture (i.e. HisTrap FF crude, GE Healthcare), followed by size exclusion chromatography (i.e. HiLoad 26/600 Superdex 200 prep grade, GE Healthcare for DGK-alpha, and HiPrep 26/600 Sephacryl S 300_HR, GE Healthcare for DGK-zeta).

human DGKζ = human DGKζ (Homo sapiens (Human), UniProt Q13574); assay: DGKζ assay (detergent/lipid micelle substrate); type: biochemical; settings: detergent/lipid micelle substrate; read-out: DGKζ IC50
Sequence of human DGKζ (Q13574 other isoform, or with tags, fused parts or gaps): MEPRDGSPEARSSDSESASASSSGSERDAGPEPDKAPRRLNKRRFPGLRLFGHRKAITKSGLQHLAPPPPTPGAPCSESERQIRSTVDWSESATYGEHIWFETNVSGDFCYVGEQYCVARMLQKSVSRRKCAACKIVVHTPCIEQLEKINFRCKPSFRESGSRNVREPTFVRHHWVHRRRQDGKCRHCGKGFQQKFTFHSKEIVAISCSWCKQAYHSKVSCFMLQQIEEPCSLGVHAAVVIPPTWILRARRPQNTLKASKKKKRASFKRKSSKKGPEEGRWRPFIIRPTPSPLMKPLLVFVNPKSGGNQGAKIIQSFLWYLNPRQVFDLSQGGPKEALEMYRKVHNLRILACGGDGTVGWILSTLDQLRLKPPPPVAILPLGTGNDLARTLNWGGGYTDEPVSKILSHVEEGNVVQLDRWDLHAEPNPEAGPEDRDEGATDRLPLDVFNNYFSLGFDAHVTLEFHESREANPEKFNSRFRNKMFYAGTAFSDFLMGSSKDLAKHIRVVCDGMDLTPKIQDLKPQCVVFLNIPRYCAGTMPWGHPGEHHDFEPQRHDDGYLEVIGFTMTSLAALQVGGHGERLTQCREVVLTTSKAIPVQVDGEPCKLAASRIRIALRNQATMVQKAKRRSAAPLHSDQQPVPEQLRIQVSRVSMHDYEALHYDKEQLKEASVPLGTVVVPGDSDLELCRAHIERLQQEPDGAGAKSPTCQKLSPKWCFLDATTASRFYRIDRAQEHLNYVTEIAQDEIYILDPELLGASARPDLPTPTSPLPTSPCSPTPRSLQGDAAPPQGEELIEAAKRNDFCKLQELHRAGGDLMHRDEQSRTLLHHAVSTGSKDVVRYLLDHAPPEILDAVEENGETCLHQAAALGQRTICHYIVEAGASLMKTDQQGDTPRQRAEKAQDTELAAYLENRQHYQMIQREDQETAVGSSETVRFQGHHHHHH
Procedure: as §1, §2, §3, §4, §5, §6

[1] = system: pre-activated CD4 T cells and Raji cells; assay: Raji CD4 T Cell IL2 Assay; type: cell-based

Sequence of human DGKα (P23743 other isoform, or with tags, fused parts or gaps): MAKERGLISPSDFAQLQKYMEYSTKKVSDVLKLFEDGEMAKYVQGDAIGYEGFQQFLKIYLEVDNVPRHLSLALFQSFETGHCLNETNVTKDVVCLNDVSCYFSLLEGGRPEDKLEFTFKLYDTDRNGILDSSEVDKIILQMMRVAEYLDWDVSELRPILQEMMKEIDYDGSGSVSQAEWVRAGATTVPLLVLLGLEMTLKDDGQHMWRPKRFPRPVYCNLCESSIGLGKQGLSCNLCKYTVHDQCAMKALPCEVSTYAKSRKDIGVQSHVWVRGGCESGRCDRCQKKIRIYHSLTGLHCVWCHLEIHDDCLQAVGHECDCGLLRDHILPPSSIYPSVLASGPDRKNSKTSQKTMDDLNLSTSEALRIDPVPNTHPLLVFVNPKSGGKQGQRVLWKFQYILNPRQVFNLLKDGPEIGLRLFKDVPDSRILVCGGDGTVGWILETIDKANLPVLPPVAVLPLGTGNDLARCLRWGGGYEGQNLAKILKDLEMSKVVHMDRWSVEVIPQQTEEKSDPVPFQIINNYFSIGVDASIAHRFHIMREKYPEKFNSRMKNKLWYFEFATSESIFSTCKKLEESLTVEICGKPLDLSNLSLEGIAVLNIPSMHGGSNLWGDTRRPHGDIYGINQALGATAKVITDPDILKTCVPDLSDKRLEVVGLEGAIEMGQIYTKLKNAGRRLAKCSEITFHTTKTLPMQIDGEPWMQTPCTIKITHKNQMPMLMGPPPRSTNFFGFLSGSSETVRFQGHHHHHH

Row | SMILES | IC50 (human DGKα) [nM] | IC50 (human DGKζ) [nM] | IC50 [1] [nM] | IC50 ([1]; Homo sapiens, Raji) [nM]
1 | COCCn1c(=O)c([N+](=O)[O-])c(N2CCN(C(C)c3ccc(F)cc3)CC2)c2nc(C#N)ccc21 (single isomer, unassigned) [Example 149, 8-(4-(1-(4-fluorophenyl)ethyl)piperazin-1-yl)-5-(2-methoxyethyl)-7-nitro-6-oxo-5,6-dihydro-1,5-naphthyridine-2-carbonitrile] | 47000 | 86000 | 64 | 
2 | COCCn1c(=O)c([N+](=O)[O-])c(N2CCN(C(C)c3ccc(F)cc3)CC2)c2nc(C#N)ccc21 (single isomer, unassigned) [Example 150, 8-(4-(1-(4-fluorophenyl)ethyl)piperazin-1-yl)-5-(2-methoxyethyl)-7-nitro-6-oxo-5,6-dihydro-1,5-naphthyridine-2-carbonitrile] | 73000 | 88000 | 510 | 
3 | COc1ccccc1C(c1ccc(F)cc1)N1CCN(c2c(C#N)c(=O)n(CC3CC3)c3ccc(Br)nc23)CC1 (single isomer, unassigned) [Example 159, 6-bromo-1-(cyclopropylmethyl)-4-(4-((4-fluorophenyl)(2-methoxyphenyl)methyl)piperazin-1-yl)-2-oxo-1,2-dihydro-1,5-naphthyridine-3-carbonitrile] | 120000 | > 240000 |  | 2000
4 | COc1ccccc1C(c1ccc(F)cc1)N1CCN(c2c(C#N)c(=O)n(CC3CC3)c3ccc(Br)nc23)CC1 (single isomer, unassigned) [Example 160, 6-bromo-1-(cyclopropylmethyl)-4-(4-((4-fluorophenyl)(2-methoxyphenyl)methyl)piperazin-1-yl)-2-oxo-1,2-dihydro-1,5-naphthyridine-3-carbonitrile] | 180000 | 160000 | 2900 | 
5 | Cn1c(=O)c(C#N)c(N2CCN(Cc3ccccc3O)CC2)c2nc(Br)ccc21 [Example 2, 6-Bromo-4-(4-(2-hydroxybenzyl)piperazin-1-yl)-1-methyl-2-oxo-1,2-dihydro-1,5-naphthyridine-3-carbonitrile] | 49 | > 240000 |  | 200
6 | COc1ccc2c(c1)C(N1CCN(c3c(C#N)c(=O)n(C)c4ccc(Br)nc34)CC1)CC2 (stereo not drawn) [Example 21, 6-bromo-4-[4-(6-methoxy-2,3-dihydro-1H-inden-1-yl)piperazin-1-yl]-1-methyl-2-oxo-1,2-dihydro-1,5-naphthyridine-3-carbonitrile] | 22000 | 94000 |  | 410
7 | Cn1c(=O)c(C#N)c(N2CCN(C(CO)c3ccc(F)cc3)CC2)c2nc(Br)ccc21 (stereo not drawn) [Example 31, 6-bromo-4-{4-[1-(4-fluorophenyl)-2-hydroxyethyl]piperazin-1-yl}-1-methyl-2-oxo-1,2-dihydro-1,5-naphthyridine-3-carbonitrile] | 1200 | > 240000 |  | 1800
8 | C#CCOc1ccccc1C(c1ccc(F)cc1)N1CCN(c2c(C#N)c(=O)n(C)c3ccc(Cl)nc23)CC1 (stereo not drawn) [Example 39, 6-chloro-4-{4-[(4-fluorophenyl)[2-(prop-2-yn-1-yloxy)phenyl]methyl]piperazin-1-lv}-1-methyl-2-oxo-1,2-dihydro-1,5-naphthyridine-3-carbonitrile] | 50000 | > 240000 |  | 640
9 | Cn1c(=O)c([N+](=O)[O-])c(N2CCN(C(c3ccc(F)cc3)c3ccc(F)cc3)CC2)c2nc(C#N)ccc21 [Example 40, 8-(4-(bis(4-fluorophenyl)methyl)piperazin-1-yl)-5-methyl-7-nitro-6-oxo-5,6-dihydro-1,5-naphthyridine-2-carbonitrile] | 1900 | 1300 |  | 37
10 | COc1ccc2c(c1)C(N1CCN(c3c([N+](=O)[O-])c(=O)n(C)c4ccc(C#N)nc34)CC1)CC2 (stereo not drawn) [Example 46, 8-(4-(6-methoxy-2,3-dihydro-1H-inden-1-yl)piperazin-1-yl)-5-methyl-7-nitro-6-oxo-5,6-dihydro-1,5-naphthyridine-2-carbonitrile] | 8500 | 2700 |  | 130
11 | Cn1c(=O)c([N+](=O)[O-])c(N2CCN(C(c3ccccc3)c3ccccc3)CC2)c2nc(Br)ccc21 [Example 52, 4-(4-benzhydrylpiperazin-1-yl)-6-bromo-1-methyl-3-nitro-1,5-naphthyridin-2(1H)-one] | 7800 | 150000 |  | 56
12 | Cn1c(=O)c([N+](=O)[O-])c(N2CCN(C(c3ccc(F)cc3)c3ccc(F)cc3)CC2)c2nc(Br)ccc21 [Example 53, 4-(4-(bis(4-fluorophenyl)methyl)piperazin-1-yl)-6-bromo-1-methyl-3-nitro-1,5-naphthyridin-2(1H)-one] | 1500 | 16000 |  | 43
13 | C#CCn1c(=O)c(C#N)c(N2CCN(Cc3ccccc3C(F)F)CC2)c2nc(Br)ccc21 [Example 64, 6-bromo-4-(4-(2-(difluoromethyl)benzyl)piperazin-1-yl)-2-oxo-1-(prop-2-yn-1-yl)-1,2-dihydro-1,5-naphthyridine-3-carbonitrile] | 2700 | 14000 |  | 55000
14 | C#CCn1c(=O)c(C#N)c(N2CCN(Cc3ccc(F)cc3OC)CC2)c2nc(Br)ccc21 [Example 68, 6-bromo-4-(4-(4-fluoro-2-methoxybenzyl)piperazin-1-yl)-2-oxo-1-(prop-2-yn-1-yl)-1,2-dihydro-1,5-naphthyridine-3-carbonitrile] | 4000 | 23000 |  | 52
15 | Cn1c(=O)c([N+](=O)[O-])c(N2CCN(C(c3ccc(F)cc3)c3ccccc3O)CC2)c2nc(Br)ccc21 (stereo not drawn) [Example 70, 6-bromo-4-(4-((4-fluorophenyl)(2-hydroxyphenyl)methyl)piperazin-1-yl)-1-methyl-3-nitro-1,5-naphthyridin-2(1H)-one] | 130 | 3300 |  | 8.9
16 | Cc1ccccc1C(c1ccccc1O)N1CCN(c2c([N+](=O)[O-])c(=O)n(C)c3ccc(Br)nc23)CC1 (stereo not drawn) [Example 73, 6-bromo-4-(4-((2-hydroxyphenyl)(o-tolyl)methyl)piperazin-1-yl)-1-methyl-3-nitro-1,5-naphthyridin-2(1H)-one] | 900 | 2100 |  | 26
17 | COCCn1c(=O)c(C#N)c(N2CCN(C(c3ccc(F)cc3)c3ccccc3O)CC2)c2nc(Br)ccc21 (stereo not drawn) [Example 117, 6-bromo-4-(4-((4-fluorophenyl)(2-hydroxyphenyl)methyl)piperazin-1-yl)-1-(2-methoxyethyl)-2-oxo-1,2-dihydro-1,5-naphthyridine-3-carbonitrile] | 46000 | 21000 |  | 770
18 | Cn1c(=O)c([N+](=O)[O-])c(N2CCN(C(c3ccc(F)cc3)c3ccc(F)cc3O)CC2)c2nc(C#N)ccc21 (stereo not drawn) [Example 122, 8-(4-((4-fluoro-2-hydroxyphenyl)(4-fluorophenyl)methyl)piperazin-1-yl)-5-methyl-7-nitro-6-oxo-5,6-dihydro-1,5-naphthyridine-2-carbonitrile] | 1000 | 720 |  | 11
